Test results from patent US20260174763A1, “PREPARATION METHOD AND USE OF A NOVEL TAXANE-BASED COMPOUND” (Jiangsu Jibeier Pharmaceutical Co., Ltd., priority 2023, published 2026).

Legend:
[1] = test system: human pancreatic cancer cell line PANC-1; test: CTG proliferation inhibition, PANC-1; type: cell-based; settings: 72 h incubation, read-out: IC50 (nM) of the test compounds for various tumor cell lines
Description: (§1) Testing the inhibition effect of the compounds of Formula (I) and Formula II on the proliferation of various tumor cell lines by CTG method:
(§2) The CellTiter-Glo Luminescent Cell Viability Assay (CTG) method was used to test the inhibition effect of the compounds of Formula (I) and Formula II on the proliferation of various tumor cell lines, and IC50 value was calculated. The tumor cell lines included: human pancreatic cancer cell lines: SW1990, PANC-1, HPAF-II; human gastric cancer cell lines: NCI-N87, MGC-803; human esophageal cancer cell lines: KYSE-150, KYSE-410; human head-and-neck cancer cell lines: C666-1, Fadu; human breast cancer cell line: MDA-MB-231; human lung cancer cell line: A549; human adrenocortical carcinoma cell line: SW-13; human bladder cancer/urothelial carcinoma cell line: BIU-87, totally 13 tumor cell lines.
(§3) Experimental method: cells in logarithmic growth phase were obtained. The cell suspension was added to each well of a 96-well plate, placed in an incubator at 37° C. for overnight incubation. Complete mediums corresponding to each of the tumor cell lines were used to dilute the test compounds of […] and Formula II. The drugs were subjected to gradient dilution according to the following table. Culture medium containing the drug to be tested was added to the 96-well plate. Replicates were provided or each concentration in three wells; and a negative control well not containing the drug to be tested was provided. The 96-well plate was placed in incubator for incubation for 72 h and then added thereto a CTG reagent, with a blank control well provided. The substances in the wells were mixed evenly, and the cells were lysed and incubated at room temperature for 10 min. The […] signal value (Lum) was measured with a microplate reader.
(§4) Data processing and analysis: The software GraphPad Prism 8.0 was used to process the data graphically, calculate IC50, perform four-parameter non-linear regression analysis on the data, and map the corresponding dose-response curve. The equation for calculating cell viability is as below: […]

[2] = test system: human breast cancer cell line MDA-MB-231; test: CTG proliferation inhibition, MDA-MB-231; type: cell-based; settings: 72 h incubation, read-out: IC50 (nM) of the test compounds for various tumor cell lines
Description: as §1, §2, §3, §4

[3] = test system: human pancreatic cancer cell line SW1990; test: CTG proliferation inhibition, SW1990; type: cell-based; settings: 72 h incubation, read-out: IC50 (nM) of the test compounds for various tumor cell lines
Description: as §1, §2, §3, §4

[4] = test system: human head-and-neck cancer cell line Fadu; test: CTG proliferation inhibition, Fadu; type: cell-based; settings: 72 h incubation, read-out: IC50 (nM) of the test compounds for various tumor cell lines
Description: as §1, §2, §3, §4

[5] = test system: human head-and-neck cancer cell line C666-1; test: CTG proliferation inhibition, C666-1; type: cell-based; settings: 72 h incubation, read-out: IC50 (nM) of the test compounds for various tumor cell lines
Description: as §1, §2, §3, §4

[6] = test system: human adrenocortical carcinoma cell line SW-13; test: CTG proliferation inhibition, SW-13; type: cell-based; settings: 72 h incubation, read-out: IC50 (nM) of the test compounds for various tumor cell lines
Description: as §1, §2, §3, §4

[7] = test system: human esophageal cancer cell line KYSE-150; test: CTG proliferation inhibition, KYSE-150; type: cell-based; settings: 72 h incubation, read-out: IC50 (nM) of the test compounds for various tumor cell lines
Description: as §1, §2, §3, §4

[8] = test system: human esophageal cancer cell line KYSE-410; test: CTG proliferation inhibition, KYSE-410; type: cell-based; settings: 72 h incubation, read-out: IC50 (nM) of the test compounds for various tumor cell lines
Description: as §1, §2, §3, §4

[9] = test system: human gastric cancer cell line NCI-N87; test: CTG proliferation inhibition, NCI-N87; type: cell-based; settings: 72 h incubation, read-out: IC50 (nM) of the test compounds for various tumor cell lines
Description: as §1, §2, §3, §4

[10] = test system: human lung cancer cell line A549; test: CTG proliferation inhibition, A549; type: cell-based; settings: 72 h incubation, read-out: IC50 (nM) of the test compounds for various tumor cell lines
Description: as §1, §2, §3, §4

[11] = test system: human gastric cancer cell line MGC-803; test: CTG proliferation inhibition, MGC-803; type: cell-based; settings: 72 h incubation, read-out: IC50 (nM) of the test compounds for various tumor cell lines
Description: as §1, §2, §3, §4

[12] = test system: human pancreatic cancer cell line HPAF-II; test: CTG proliferation inhibition, HPAF-II; type: cell-based; settings: 72 h incubation, read-out: IC50 (nM) of the test compounds for various tumor cell lines
Description: as §1, §2, §3, §4

[13] = test system: human bladder cancer/urothelial carcinoma cell line BIU-87; test: CTG proliferation inhibition, BIU-87; type: cell-based; settings: 72 h incubation, read-out: IC50 (nM) of the test compounds for various tumor cell lines
Description: as §1, §2, §3, §4

advanced ovarian cancer = settings: clinical outcome; cited from earlier work
[14] = test system: advanced non-small cell lung cancer; settings: clinical outcome; cited from earlier work
advanced breast cancer = settings: clinical outcome; cited from earlier work
tumor cell = settings: compared with paclitaxel; cited from earlier work

CC(=O)OC12COC1CC(O)C1(C)C(=O)C(OC(=O)Nc3ccc(C(C)O)cc3)C3=C(C)C(OC(=O)C(O)C(NC(=O)OC(C)(C)C)c4ccccc4)CC(O)(C(OC(=O)c4ccccc4)C21)C3(C)C (centres unmarked) [Compound I-7]
IC50 [1]: 0.888 nM | IC50 [2]: 13 nM | IC50 [3]: 6.73 nM | IC50 [4]: 6.47 nM | IC50 [5]: 9.19 nM | IC50 [6]: 7.36 nM | IC50 [7]: 0.972 nM | IC50 [8]: 0.1 nM | IC50 [9]: 10.9 nM | IC50 [10]: 60.2 nM | IC50 [11]: 4.93 nM | IC50 [12]: 3.11 nM | IC50 [13]: 10.2 nM

CC(=O)OC12COC1CC(O)C1(C)C(=O)C(OC(=O)Nc3ccc(C(C)O)cc3)C3=C(C)C(OC(=O)C(O)C(NC(=O)OC(C)(C)C)c4ccccc4)CC(O)(C(OC(=O)c4ccccc4)C21)C3(C)C (centres unmarked) [Compound I-8]
IC50 [1]: 0.007 nM | IC50 [2]: 6.57 nM | IC50 [3]: 14.2 nM | IC50 [4]: 9.16 nM | IC50 [5]: 10.5 nM | IC50 [6]: 10.1 nM | IC50 [7]: 1.7 nM | IC50 [8]: 0.032 nM | IC50 [9]: 14.7 nM | IC50 [10]: 27.1 nM | IC50 [11]: 0.844 nM | IC50 [12]: 9.05 nM | IC50 [13]: 12.7 nM

CC(=O)OC12COC1CC(O)C1(C)C(=O)C(OC(=O)Nc3ccc(C(C)O)cc3)C3=C(C)C(OC(=O)C(O)C(NC(=O)OC(C)(C)C)c4ccccc4)CC(O)(C(OC(=O)c4ccccc4)C21)C3(C)C (centres unmarked) [Compound I-2]
IC50 [1]: 2.89 nM | IC50 [2]: 0.042 nM | IC50 [3]: 3.1 nM | IC50 [4]: 4.15 nM | IC50 [5]: 7.34 nM | IC50 [6]: 6.12 nM | IC50 [7]: 1.75 nM | IC50 [8]: 0.101 nM | IC50 [9]: 7.46 nM | IC50 [10]: 11.7 nM | IC50 [11]: 3.4 nM | IC50 [12]: 8.65 nM | IC50 [13]: 29.1 nM

CC(=O)OC12COC1CC(O)C1(C)C(=O)C(OC(=O)Nc3ccc(C(C)O)cc3)C3=C(C)C(OC(=O)C(O)C(NC(=O)OC(C)(C)C)c4ccccc4)CC(O)(C(OC(=O)c4ccccc4)C21)C3(C)C (centres unmarked) [Compound I-5]
IC50 [1]: 1.41 nM | IC50 [2]: 2.91 nM | IC50 [3]: 12.7 nM | IC50 [4]: 4.76 nM | IC50 [5]: 3.39 nM | IC50 [6]: 4.75 nM | IC50 [7]: 0.808 nM | IC50 [8]: 0.016 nM | IC50 [9]: 11.4 nM | IC50 [10]: 5.64 nM | IC50 [11]: 0.635 nM | IC50 [12]: 10.7 nM | IC50 [13]: 17.7 nM

CC(=O)OC12COC1CC(O)C1(C)C(=O)C(OC(=O)Nc3ccc(C(C)O)cc3)C3=C(C)C(OC(=O)C(O)C(NC(=O)OC(C)(C)C)c4ccccc4)CC(O)(C(OC(=O)c4ccccc4)C21)C3(C)C (centres unmarked) [Compound I-4]
IC50 [1]: 0.549 nM | IC50 [2]: 12.6 nM | IC50 [3]: 6.4 nM | IC50 [4]: 8.62 nM | IC50 [5]: 12.1 nM | IC50 [6]: 9.12 nM | IC50 [7]: 0.726 nM | IC50 [8]: 0.097 nM | IC50 [9]: 18.8 nM | IC50 [10]: 12.4 nM | IC50 [11]: 4.99 nM | IC50 [12]: 2.18 nM | IC50 [13]: 17.5 nM

CC(=O)OC12COC1CC(O)C1(C)C(=O)C(OC(=O)Nc3ccc(C(C)O)cc3)C3=C(C)C(OC(=O)C(O)C(NC(=O)OC(C)(C)C)c4ccccc4)CC(O)(C(OC(=O)c4ccccc4)C21)C3(C)C (centres unmarked) [Compound I-1]
IC50 [1]: 2.27 nM | IC50 [2]: 5.46 nM | IC50 [3]: 6.34 nM | IC50 [4]: 2.64 nM | IC50 [5]: 16 nM | IC50 [6]: 1.57 nM | IC50 [7]: 1.99 nM | IC50 [8]: 1.26 nM | IC50 [9]: 28.2 nM | IC50 [10]: 41.9 nM | IC50 [11]: 0.187 nM | IC50 [12]: 4.45 nM | IC50 [13]: 12.1 nM

CC(=O)OC12COC1CC(O)C1(C)C(=O)C(OC(=O)Nc3ccc(C(C)O)cc3)C3=C(C)C(OC(=O)C(O)C(NC(=O)OC(C)(C)C)c4ccccc4)CC(O)(C(OC(=O)c4ccccc4)C21)C3(C)C (centres unmarked) [Compound I-6]
IC50 [1]: 0.878 nM | IC50 [2]: 11.7 nM | IC50 [3]: 12.2 nM | IC50 [4]: 12.8 nM | IC50 [5]: 3.03 nM | IC50 [6]: 8.48 nM | IC50 [7]: 0.123 nM | IC50 [8]: 0.02 nM | IC50 [9]: 12.9 nM | IC50 [10]: 18.9 nM | IC50 [11]: 3.49 nM | IC50 [12]: 11 nM | IC50 [13]: 30.1 nM

CC(=O)OC12COC1CC(O)C1(C)C(=O)C(OC(=O)Nc3ccc(C(C)=O)cc3)C3=C(C)C(OC(=O)C(O)C(NC(=O)OC(C)(C)C)c4ccccc4)CC(O)(C(OC(=O)c4ccccc4)C21)C3(C)C (centres unmarked) [II, reference compound]
IC50 [1]: 3.35 nM | IC50 [2]: 20.9 nM | IC50 [3]: 15.5 nM | IC50 [4]: 16.7 nM | IC50 [5]: 12.8 nM | IC50 [6]: 12.5 nM | IC50 [7]: 1.9 nM | IC50 [8]: 0.113 nM | IC50 [9]: 20.8 nM | IC50 [10]: 60.5 nM | IC50 [11]: 5.34 nM | IC50 [12]: 12.6 nM | IC50 [13]: 30.5 nM

CC(=O)OC12COC1CC(O)C1(C)C(=O)C(OC(=O)Nc3ccc(C(C)O)cc3)C3=C(C)C(OC(=O)C(O)C(NC(=O)OC(C)(C)C)c4ccccc4)CC(O)(C(OC(=O)c4ccccc4)C21)C3(C)C (centres unmarked) [Compound I-3]
IC50 [1]: 0.814 nM | IC50 [2]: 6.61 nM | IC50 [3]: 0.916 nM | IC50 [4]: 0.657 nM | IC50 [5]: 10.5 nM | IC50 [6]: 2.69 nM | IC50 [7]: 0.376 nM | IC50 [8]: 0.084 nM | IC50 [9]: 8.3 nM | IC50 [10]: 25.3 nM | IC50 [11]: 2.08 nM | IC50 [12]: 2.22 nM | IC50 [13]: 0.319 nM

CC(=O)O[C@@]12CO[C@@H]1C[C@H](O)[C@@]1(C)C(=O)[C@H](O)C3=C(C)[C@@H](OC(=O)[C@H](O)[C@@H](NC(=O)OC(C)(C)C)c4ccccc4)C[C@@](O)([C@@H](OC(=O)c4ccccc4)[C@H]21)C3(C)C [docetaxel, Docetaxel]
effective rate (advanced ovarian cancer): 30% | effective rate [14]: 31% | effective rate (advanced breast cancer): 60% | ability to inhibit cell division relative to paclitaxel (tumor cell): twice that of paclitaxel | tumor cell proliferation inhibition rate relative to paclitaxel (tumor cell): 10 times
